Assay results: ChEMBL document CHEMBL1201862, “PubChem BioAssay data set” (2004)
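1) Cells in 96-well plates. 2) Compound, 48 h, 5 concentrations. 3) Linear interpolation between surrounding doses. 4) Unreached endpoint = highest concentration. GI50 is the concentration that inhibits growth by half.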 Active and inactive are the calls of the source. No stated cut-off is given here; in the data, active = GI50 up to about 1.1 µM and inactive = higher.

How the values were obtained:
Assay in all cases: NCI-60 cell line screen, 48 h
UACC-257 = test system: UACC-257
SK-OV-3 = test system: SK-OV-3
NCI-H226 = test system: NCI-H226
SNB-75 = test system: SNB-75
OVCAR-8 = test system: OVCAR-8
SK-MEL-2 = test system: SK-MEL-2
COLO 205 = test system: COLO 205
SK-MEL-5 = test system: SK-MEL-5
HCC 2998 = test system: HCC 2998
SF-539 = test system: SF-539
786-0 = test system: 786-0
KM12 = test system: KM12
OVCAR-5 = test system: OVCAR-5
OVCAR-3 = test system: OVCAR-3
CCRF-CEM = test system: CCRF-CEM

Row | SMILES | GI50 (UACC-257) | GI50 (SK-OV-3) | GI50 (NCI-H226) | GI50 (SNB-75) | GI50 (OVCAR-8) | GI50 (SK-MEL-2) | GI50 (COLO 205) | GI50 (SK-MEL-5) | GI50 (HCC 2998) | GI50 (SF-539) | GI50 (786-0) | GI50 (KM12) | GI50 (OVCAR-5) | GI50 (OVCAR-3) | GI50 (CCRF-CEM)
1 | CC(C)(CN1CCCCC1)C(=O)CC(SCCS(=O)(=O)O)c1ccc(Br)cc1 (stereo not drawn) | 3.17 µM (inactive) | 2.93 µM (inactive) | 3.26 µM (inactive) | 2.07 µM (inactive) | 2.38 µM (inactive) | 2.32 µM (inactive) | 1.45 µM (inactive) | 1.8 µM (inactive) | 2.7 µM (inactive) | 1.6 µM (inactive) | 1.26 µM (inactive) | 2 µM (inactive) | 2.8 µM (inactive) | – | –
2 | FC(F)(F)c1cccc(/C=N/C23CC4CC(CC(C4)C2)C3)c1 | > 100 µM (inactive) | > 100 µM (inactive) | > 100 µM (inactive) | 51.9 µM (inactive) | > 100 µM (inactive) | > 100 µM (inactive) | > 100 µM (inactive) | > 100 µM (inactive) | > 100 µM (inactive) | > 100 µM (inactive) | > 100 µM (inactive) | > 100 µM (inactive) | > 100 µM (inactive) | > 100 µM (inactive) | –
3 | CCOC(=O)c1sc2c(sc(=O)n2-c2ccccc2)c1O | > 100 µM (inactive) | > 100 µM (inactive) | > 100 µM (inactive) | > 100 µM (inactive) | > 100 µM (inactive) | > 100 µM (inactive) | 45.3 µM (inactive) | > 100 µM (inactive) | > 100 µM (inactive) | > 100 µM (inactive) | > 100 µM (inactive) | > 100 µM (inactive) | > 100 µM (inactive) | 88.7 µM (inactive) | 45 µM (inactive)
4 | OCC(O)C(OC1OC(CO)C(O)C(O)C1O)c1nn(-c2ccccc2)c2nc3cc(Cl)ccc3nc12 (stereo not drawn) | > 100 µM (inactive) | > 100 µM (inactive) | – | > 100 µM (inactive) | > 100 µM (inactive) | – | – | – | > 100 µM (inactive) | > 100 µM (inactive) | > 100 µM (inactive) | > 100 µM (inactive) | > 100 µM (inactive) | > 100 µM (inactive) | > 100 µM (inactive)
5 | C[C@@H]1[C@@H]2[C@@H](C=C3C4CCC5Cc6nc7c(nc6C[C@@]5(C)C4C[C@H](O)[C@]32CO)CC2CCC3C4=C[C@H]5O[C@@]6(OC(C)(CO)C[C@@H]6O)[C@H](C)[C@@]5(O)[C@]4(C)[C@@H](O)CC3[C@]2(C)C7)O[C@]12CCC(C)(C)O2 (stereo partly drawn) | 0.0668 µM (active) | 0.0167 µM (active) | 0.0225 µM (active) | 0.00038 µM (active) | 0.425 µM (active) | 0.0189 µM (active) | 0.0809 µM (active) | 0.0324 µM (active) | 0.145 µM (active) | 0.000764 µM (active) | 0.00262 µM (active) | 0.057 µM (active) | 0.488 µM (active) | 0.388 µM (active) | 0.0117 µM (active)
6 | CC(=O)Nc1ccc(/C=C/C(=O)c2sc(C(N)=S)nc2C)cc1 | > 100 µM (inactive) | > 100 µM (inactive) | > 100 µM (inactive) | > 100 µM (inactive) | > 100 µM (inactive) | > 100 µM (inactive) | > 100 µM (inactive) | > 100 µM (inactive) | > 100 µM (inactive) | > 100 µM (inactive) | > 100 µM (inactive) | > 100 µM (inactive) | > 100 µM (inactive) | > 100 µM (inactive) | 81.1 µM (inactive)
7 | CC(=O)O[C@H]1C(N(C)C(=O)c2ccccc2)CC[C@]2(C)C3CC[C@@]4(C)C(CC(O)[C@@H]4C(C)N(C)C)[C@@H]3CCC12 (stereo partly drawn) | > 100 µM (inactive) | > 100 µM (inactive) | > 100 µM (inactive) | > 100 µM (inactive) | > 100 µM (inactive) | > 100 µM (inactive) | > 100 µM (inactive) | > 100 µM (inactive) | > 100 µM (inactive) | > 100 µM (inactive) | > 100 µM (inactive) | > 100 µM (inactive) | > 100 µM (inactive) | > 100 µM (inactive) | > 100 µM (inactive)
8 | O=C1/C(=C/c2ccc3c(c2)OCO3)SC2C=Nc3ccccc3N12 (stereo not drawn) | > 100 µM (inactive) | – | > 100 µM (inactive) | 28.9 µM (inactive) | > 100 µM (inactive) | > 100 µM (inactive) | > 100 µM (inactive) | > 100 µM (inactive) | > 100 µM (inactive) | 86.1 µM (inactive) | > 100 µM (inactive) | > 100 µM (inactive) | > 100 µM (inactive) | > 100 µM (inactive) | –
9 | C=CCNC(=O)NCCCC(NC(C)=O)C(=O)NCc1ccccc1 (stereo not drawn) | > 100 µM (inactive) | > 100 µM (inactive) | > 100 µM (inactive) | > 100 µM (inactive) | > 100 µM (inactive) | > 100 µM (inactive) | > 100 µM (inactive) | > 100 µM (inactive) | – | > 100 µM (inactive) | > 100 µM (inactive) | > 100 µM (inactive) | > 100 µM (inactive) | > 100 µM (inactive) | > 100 µM (inactive)
10 | O=C(O)[C@@H](NS(=O)(=O)c1ccc2ccccc2c1)c1ccccc1 | > 100 µM (inactive) | > 100 µM (inactive) | – | > 100 µM (inactive) | – | > 100 µM (inactive) | > 100 µM (inactive) | – | > 100 µM (inactive) | > 100 µM (inactive) | > 100 µM (inactive) | – | > 100 µM (inactive) | – | > 100 µM (inactive)
11 | O=c1oc(=O)c2oc3ccccc3oc1=2 | > 100 µM (inactive) | > 100 µM (inactive) | > 100 µM (inactive) | > 100 µM (inactive) | > 100 µM (inactive) | > 100 µM (inactive) | > 100 µM (inactive) | – | > 100 µM (inactive) | > 100 µM (inactive) | > 100 µM (inactive) | > 100 µM (inactive) | > 100 µM (inactive) | > 100 µM (inactive) | > 100 µM (inactive)
12 | NCCCOCC(=O)O | > 100 µM (inactive) | > 100 µM (inactive) | > 100 µM (inactive) | > 100 µM (inactive) | > 100 µM (inactive) | > 100 µM (inactive) | > 100 µM (inactive) | > 100 µM (inactive) | > 100 µM (inactive) | > 100 µM (inactive) | > 100 µM (inactive) | > 100 µM (inactive) | > 100 µM (inactive) | > 100 µM (inactive) | –
13 | O=C(CCN1CCC(CCO)CC1)Nc1ccc2c(c1)C(=O)c1ccc(NC(=O)CCN3CCC(CCO)CC3)cc1C2=O | 19.5 µM (inactive) | 7.96 µM (inactive) | 4.86 µM (inactive) | 20.2 µM (inactive) | 9.89 µM (inactive) | 3.76 µM (inactive) | 10.7 µM (inactive) | 19.4 µM (inactive) | 14.4 µM (inactive) | 6.28 µM (inactive) | 6.7 µM (inactive) | 2.69 µM (inactive) | > 100 µM (inactive) | 5.53 µM (inactive) | 4.22 µM (inactive)
14 | N#CCCn1c(S)nnc1CCC(=O)Nc1ccc(Cl)cc1Cl | > 100 µM (inactive) | > 100 µM (inactive) | > 100 µM (inactive) | > 100 µM (inactive) | > 100 µM (inactive) | > 100 µM (inactive) | > 100 µM (inactive) | > 100 µM (inactive) | > 100 µM (inactive) | > 100 µM (inactive) | > 100 µM (inactive) | > 100 µM (inactive) | > 100 µM (inactive) | > 100 µM (inactive) | 52.6 µM (inactive)
15 | CC(=O)OC1(C(C)=O)CC2(c3ccccc3)OC1(c1ccccc1)c1ccccc12 (stereo not drawn) | 4.1 µM (inactive) | 46.9 µM (inactive) | 5.98 µM (inactive) | 59.6 µM (inactive) | 34.6 µM (inactive) | 12.6 µM (inactive) | 7.67 µM (inactive) | 3.37 µM (inactive) | 16.8 µM (inactive) | 32 µM (inactive) | 31 µM (inactive) | 17.3 µM (inactive) | > 100 µM (inactive) | 11.4 µM (inactive) | –
16 | OCCCNc1ccnc2cc(Cl)ccc12 | > 100 µM (inactive) | > 100 µM (inactive) | 61.9 µM (inactive) | > 100 µM (inactive) | > 100 µM (inactive) | > 100 µM (inactive) | > 100 µM (inactive) | > 100 µM (inactive) | > 100 µM (inactive) | > 100 µM (inactive) | > 100 µM (inactive) | > 100 µM (inactive) | > 100 µM (inactive) | > 100 µM (inactive) | > 100 µM (inactive)
17 | c1cnc2c(c1)-n1cccc1C1(CCCCC1)NN2 | 48.4 µM (inactive) | – | > 100 µM (inactive) | > 100 µM (inactive) | > 100 µM (inactive) | > 100 µM (inactive) | > 100 µM (inactive) | 71.3 µM (inactive) | > 100 µM (inactive) | > 100 µM (inactive) | > 100 µM (inactive) | 99.1 µM (inactive) | > 100 µM (inactive) | 86.3 µM (inactive) | 41.5 µM (inactive)
18 | Cc1ccc(-c2cc(-c3ccco3)c(C#N)c(O)n2)cc1 | > 100 µM (inactive) | 29.4 µM (inactive) | > 100 µM (inactive) | 18.7 µM (inactive) | > 100 µM (inactive) | – | > 100 µM (inactive) | > 100 µM (inactive) | > 100 µM (inactive) | > 100 µM (inactive) | > 100 µM (inactive) | > 100 µM (inactive) | > 100 µM (inactive) | > 100 µM (inactive) | > 100 µM (inactive)
19 | O=C1/C(=C(\Nc2ccccc2)c2ccccc2)C=NN1c1ccccc1 | > 100 µM (inactive) | > 100 µM (inactive) | – | > 100 µM (inactive) | > 100 µM (inactive) | > 100 µM (inactive) | > 100 µM (inactive) | 26.7 µM (inactive) | > 100 µM (inactive) | > 100 µM (inactive) | > 100 µM (inactive) | > 100 µM (inactive) | > 100 µM (inactive) | – | > 100 µM (inactive)
